Experiments:
Erysiphe graminis hordei = assay: foliar fungal disease control, Erysiphe graminis hordei on barley; assay type: in vivo; conditions: 100 ppm foliar spray plus root drench approx. 40 ppm a.i./dry soil; inoculated 24 hours before treatment
Procedure: (§1) The compounds were tested against a variety of foliar fungal diseases of plants. The technique employed was as follows.
(§2) The plants were grown in John Innes Potting Compost (No 1 or 2) in 4 cm diameter minipots. The test compounds were formulated either by bead milling with aqueous Dispersol T or as a solution in acetone or acetone/ethanol which was diluted to the required concentration immediately before use. […] The sprays were applied to maximum retention and the root drenches to a final concentration equivalent to approximately 40 ppm a.i./dry soil. Tween 20, to give a final concentration of 0.05%, was added when the sprays were applied to cereals.
(§3) For most of the tests the compound was applied to the soil (roots) and to the foliage (by spraying) one or two days before the plant was inoculated with the disease. An exception was the test on Erysiphe graminis in which the plants were inoculated 24 hours before treatment. Foliar pathogens were applied by spray as spore suspensions onto the leaves of test plants. After inoculation, the plants were put into an appropriate environment to allow infection to proceed and then incubated until the disease was ready for assessment. The period between inoculation and assessment varied from four to fourteen days according to the disease and environment.
(§4) The disease control was recorded by the following grading: […]

[1] = tested on: Musca domestica (houseflies - adults); assay: pest mortality, Musca domestica, contact test; assay type: in vivo; conditions: 500 ppm, cotton wool/sugar, duration 1 day
Procedure: (§5) The activity of each compound was determined using a variety of insect mites and nematode pests. The compound was used in the form of liquid preparations containing from 100 to 500 parts per million (ppm) by weight of the compound. The preparations were made by dissolving the compound in acetone and diluting the solutions with water containing 0.1% by weight of a wetting agent sold under the trade name "SYNPERONIC" NX until the liquid preparations contained the required concentration of the product. "SYNPERONIC" is a Registered Trade Mark.
(§6) The test procedure adopted with regard to each pest was basically the same and comprised supporting a number of the pests on a medium which was usually a host plant or a food stuff on which the pests feed, and treating either or both the pests and the medium with the preparations. The mortality of the pests was then assessed at periods usually varying from one to seven days after the treatment. […]

Cercospora arachidicola = assay: foliar fungal disease control, Cercospora arachidicola on peanut; assay type: in vivo; conditions: 100 ppm foliar spray plus root drench approx. 40 ppm a.i./dry soil
Procedure: as §1, §2, §3, §4

[2] = tested on: Tetranychus uritcae (spider mites and ova); assay: pest mortality, Tetranychus uritcae, contact test; assay type: in vivo; conditions: 500 ppm, French bean leaf, duration 3 days
Procedure: as §5, §6

[3] = tested on: Diabrotica balteata (rootworm larvae); assay: pest mortality, Diabrotica balteata, residual test; assay type: in vivo; conditions: 500 ppm, filter paper/maize seed, duration 3 days
Procedure: as §5, §6

Plasmopara viticola = assay: foliar fungal disease control, Plasmopara viticola on vine; assay type: in vivo; conditions: 100 ppm foliar spray plus root drench approx. 40 ppm a.i./dry soil
Procedure: as §1, §2, §3, §4

Puccinia recondita = assay: foliar fungal disease control, Puccinia recondita on wheat; assay type: in vivo; conditions: 100 ppm foliar spray plus root drench approx. 40 ppm a.i./dry soil
Procedure: as §1, §2, §3, §4

Pyricularia oryzae = assay type: in vivo, Pyricularia oryzae (rice); conditions: 100 ppm foliar spray plus root drench approx. 40 ppm a.i./dry soil
Venturia inaequalis = assay: foliar fungal disease control, Venturia inaequalis on apple; assay type: in vivo; conditions: 100 ppm foliar spray plus root drench approx. 40 ppm a.i./dry soil
Procedure: as §1, §2, §3, §4

[4] = tested on: Chilo partellus (maize stem borers); assay: pest mortality, Chilo partellus, residual test; assay type: in vivo; conditions: 500 ppm, oil seed rape leaf, duration 3 days
Procedure: as §5, §6

Phytophthora infestans = assay type: in vivo, Phytophthora infestans (tomato); conditions: 100 ppm foliar spray plus root drench approx. 40 ppm a.i./dry soil

Compound | disease control grading, Erysiphe graminis hordei (barley) (Erysiphe graminis hordei) | grading of mortality, MD [1] | disease control grading, Cercospora arachidicola (peanut) (Cercospora arachidicola) | grading of mortality, TUe [2] | grading of mortality, DB [3] | disease control grading, Plasmopara viticola (vine) (Plasmopara viticola) | disease control grading, Puccinia recondita (wheat) (Puccinia recondita) | disease control grading, Pyricularia oryzae (rice) (Pyricularia oryzae) | disease control grading, Venturia inaequalis (apple) (Venturia inaequalis) | grading of mortality, CP [4] | disease control grading, Phytophthora infestans (tomato) (Phytophthora infestans)
CO/C=C(/C(=O)OC)c1ccccc1Oc1ccc(Br)cn1 [Compound 15 (Table I)] | 4 | 0 (less than 50% mortality) | 3 (trace-5% of disease on untreated plants) | 0 (less than 50% mortality) | 9 (80-100% mortality) | 4 | 4 | 3 (trace-5% of disease on untreated plants) | – | – | –
CO/C=C(/C(=O)OC)c1ccccc1Oc1ccc(Cl)cn1 [Compound 14 (Table I), (E)-methyl 2-[2'-(5"-chloropyridin-2"-yloxy)phenyl]-3-methoxyacrylate] | 4 | 9 (80-100% mortality) | 4 | 0 (less than 50% mortality) | 5 (50-79% mortality) | 4 | 4 | 4 | 2 (6-25% of disease on untreated plants) | 9 (80-100% mortality) | –
CO/C=C(/C(=O)OC)c1ccccc1Oc1ccc(NC=O)cn1 [Compound 130 (Table I)] | 0 (60-100% of disease on untreated plants) | – | 4 | – | – | 0 (60-100% of disease on untreated plants) | 3 (trace-5% of disease on untreated plants) | 0 (60-100% of disease on untreated plants) | 0 (60-100% of disease on untreated plants) | – | 0 (60-100% of disease on untreated plants)
CO/C=C(/C(=O)OC)c1ccccc1Oc1ncc(C(F)(F)F)cc1[N+](=O)[O-] [Compound 129 (Table I)] | 4 | – | 0 (60-100% of disease on untreated plants) | – | – | 0 (60-100% of disease on untreated plants) | 0 (60-100% of disease on untreated plants) | 0 (60-100% of disease on untreated plants) | 4 | – | 0 (60-100% of disease on untreated plants)
CO/C=C(/C(=O)OC)c1ccccc1Oc1nc(C)cc(Cl)n1 [Compound 166 (Table I)] | 4 | – | 4 | – | – | 3 (trace-5% of disease on untreated plants) | 4 | 1 (26-59% of disease on untreated plants) | 4 | – | 3 (trace-5% of disease on untreated plants)
CO/C=C(/C(=O)OC)c1ccccc1Oc1cccc(C(F)(F)F)n1 [Compound 22 (Table I)] | 4 | – | 4 | – | – | 4 | 4 | 4 | 4 | – | 3 (trace-5% of disease on untreated plants)
CO/C=C(/C(=O)OC)c1ccccc1Sc1ccc(Br)cn1 [Compound 15 (Table II), (E)-methyl 2-[2'-(5"-bromopyridin-2"-ylthio)phenyl]-3-methoxyacrylate] | 3 (trace-5% of disease on untreated plants) | – | 1 (26-59% of disease on untreated plants) | – | – | 4 | 2 (6-25% of disease on untreated plants) | 0 (60-100% of disease on untreated plants) | 0 (60-100% of disease on untreated plants) | – | 0 (60-100% of disease on untreated plants)
CO/C=C(/C(=O)OC)c1ccccc1Oc1cc(C)ccn1 [Compound 10 (Table I)] | 4 | – | 3 (trace-5% of disease on untreated plants) | – | – | 4 | 4 | 4 | 4 | – | 4
CO/C=C(/C(=O)OC)c1ccccc1Oc1cc(C(Cl)(Cl)Cl)nc(Cl)n1 [Compound 139 (Table I)] | 0 (60-100% of disease on untreated plants) | – | 4 | – | – | 4 | 4 | 2 (6-25% of disease on untreated plants) | 0 (60-100% of disease on untreated plants) | – | 0 (60-100% of disease on untreated plants)
CO/C=C(/C(=O)OC)c1ccccc1Oc1ccc2ccccc2n1 [Compound 165 (Table I)] | 4 | – | 4 | – | – | 4 | 2 (6-25% of disease on untreated plants) | 2 (6-25% of disease on untreated plants) | 4 | – | 3 (trace-5% of disease on untreated plants)
CO/C=C(/C(=O)OC)c1ccccc1Oc1ccc(N)cn1 [Compound 131 (Table I)] | 0 (60-100% of disease on untreated plants) | – | 0 (60-100% of disease on untreated plants) | – | – | 0 (60-100% of disease on untreated plants) | 3 (trace-5% of disease on untreated plants) | 0 (60-100% of disease on untreated plants) | 0 (60-100% of disease on untreated plants) | – | 0 (60-100% of disease on untreated plants)

Source: patent US5057146A (priority 1986, dated 1991)
